In US20140128260A1, “Compositions and Methods for Post Emergent Weed Control with Dim Herbicides and Gibberellic Acid” (Valent U.S.A. Corporation, priority 2012, published 2014):

Assays:
[1] = test system: Johnsongrass; assay: Effect of clethodim and GA3 treatments on Johnsongrass, field plots (Example 1); type: in vivo, sorghum halepense
Method: In order to determine the efficacy of combinations of clethodim and GA3, numerous treatments were applied to plots in an area with abundant Johnsongrass growth.
The percent control of Johnsongrass plants was evaluated at 7, 18 and 28 days following the treatment. Effect of Clethodim and GA3 Treatments on Johnsongrass (% control).”
The percent control refers to the amount of dead tissue on the plants present. It would be dead plants plus desiccated foliage on partially killed plants.

[2] = test system: Glyphosate resistant corn; assay: Effect of clethodim and GA3 treatments on planted glyphosate resistant corn (Example 2); type: in vivo
Method: A further study was performed in order to confirm the effect clethodim and GA3 treatments have on corn. Glyphosate resistant corn was planted with a conventional four-row planter. Treatments were applied 28 days after the plantings.
Effect of Clethodim and GA3 Treatments on corn (% control).

SMILES	Johnsongrass % control ([1]; 7 DAT, clethodim 32 x g ai/a (9 fl oz/a of Selectmax), with 0.25% v/v NIS and 2.5 lb/acre AMS) [%]	Johnsongrass % control ([1]; 18 DAT, clethodim 32 x g ai/a (9 fl oz/a of Selectmax), with 0.25% v/v NIS and 2.5 lb/acre AMS) [%]	Johnsongrass % control ([1]; 28 DAT, clethodim 32 x g ai/a (9 fl oz/a of Selectmax), with 0.25% v/v NIS and 2.5 lb/acre AMS) [%]	Corn % control ([2]; 6 DAT, clethodim 32 gm ai/a, with NIS and AMS) [%]	Corn % control ([2]; 13 DAT, clethodim 32 gm ai/a, with NIS and AMS) [%]	Corn % control ([2]; 29 DAT, clethodim 32 gm ai/a, with NIS and AMS) [%]	Activity of clethodim on corn in the presence of GA3 ([2]; in vivo)	Johnsongrass % control ([1]; 7 DAT, GA3 5 g ai/a (5 fl oz/a of ProGibb 4%)) [%]	Johnsongrass % control ([1]; 7 DAT, GA3 25 g ai/a (25 fl oz/a of ProGibb 4%)) [%]	Johnsongrass % control ([1]; 18 DAT, GA3 5 g ai/a (5 fl oz/a of ProGibb 4%)) [%]	Johnsongrass % control ([1]; 18 DAT, GA3 25 g ai/a (25 fl oz/a of ProGibb 4%)) [%]	Johnsongrass % control ([1]; 28 DAT, GA3 5 g ai/a (5 fl oz/a of ProGibb 4%)) [%]	Johnsongrass % control ([1]; 28 DAT, GA3 25 g ai/a (25 fl oz/a of ProGibb 4%)) [%]	Effect of GA3 on the activity of clethodim on Johnsongrass ([1]; seven days following treatment)	Corn % control ([2]; 6 DAT, GA3 3 g ai/a, with 0.25% v/v NIS and 2.5 lb/acre AMS) [%]	Corn % control ([2]; 6 DAT, GA3 10 g ai/a, with NIS and AMS) [%]	Corn % control ([2]; 13 DAT, GA3 3 g ai/a, with NIS and AMS) [%]	Corn % control ([2]; 13 DAT, GA3 10 g ai/a, with NIS and AMS) [%]	Corn % control ([2]; 29 DAT, GA3 3 g ai/a, with NIS and AMS) [%]	Corn % control ([2]; 29 DAT, GA3 10 g ai/a, with NIS and AMS) [%]
CCSC(C)CC1CC(=O)C(C(CC)=NOC/C=C/Cl)=C(O)C1 (centres unmarked) [Clethodim, 2-[1-[[[(2E)-3-chloro-2-propen-1-yl]oxy]imino]propyl]-5-[2-(ethylthio)propyl]-3-hydroxy-2-cyclohexen-1-one]	37.21	85.66	89.26	48.33	88.33	96.00	significantly increased													
C=C1C[C@]23C[C@@]1(O)CC[C@H]2[C@@]12C=C[C@H](O)[C@@](C)(C(=O)O1)[C@H]2[C@@H]3C(=O)O [GA3, Gibberellic acid]								0	0	0.32	0	0	0	more than doubles the activity of clethodim	0	0	0	0	0	0
